Reference: US9580430B2, “9H-pyrimido[4,5-B]indoles and related analogs as BET bromodomain inhibitors” (THE REGENTS OF THE UNIVERSITY OF MICHIGAN, priority 2014, dated 2017)

Assays:
MDA-MB-436 = test: Cell growth inhibition, MDA-MB-436 breast cancer cells (WST-8); type: cell-based; conditions: Homo sapiens, MDA-MB-436, 96 h; 4 days; read-out: IC50 (nM) MDA-MB-436 Cell Line (WST assay)
Outline: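 IC50 was computed from WST-8-based cell counting in MDA-MB-436 cells, with absorbance read at 450 nm.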

MOLM-13 = test: Cell growth inhibition, MOLM-13 leukemia cells (CellTiter-Glo); type: cell-based; conditions: Homo sapiens, MOLM-13, 96 h; 4 days; read-out: IC50 (nM) MOLM-13 Cell Line (CellTiter-Glo assay)
Outline: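 MOLM-13 leukemia cells treated with compounds; viability read by CellTiter-Glo luminescence after 10-20 min reagent incubation at room temperature. IC50 derived from luminescent signal.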

recombinant BRD4 BD2 = biological target: T1, recombinant BRD4 BD2 (Homo sapiens, UniProt O60885); test: Competitive fluorescence-polarization (FP) binding assay, BRD4 BD2; conditions: competitive FP assay; protein 6 nM, probe […]; read-out: IC50 (nM) BRD4 BD2; note: probe 1.5 nM
T1 construct: for recombinant BRD4 BD1 and BRD4 BD2 proteins
Outline: (§1)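 FP competition with FAM-labelled probe (ZBA248 or BRD-1F) against preincubated protein/probe complex; BD1 at 10 nM and BD2 at 6 nM final, in 100 mM potassium phosphate pH 6.5, 0.01% Triton X-100. 30 min, room temperature. IC50 by nonlinear regression; Ki also derived, using probe Kd from protein saturation.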

recombinant BRD4 BD1 = biological target: T2, recombinant BRD4 BD1 (Homo sapiens, UniProt O60885); test: Competitive fluorescence-polarization (FP) binding assay, BRD4 BD1; conditions: competitive FP assay; protein 10 nM, probe […]; read-out: IC50 (nM) BRD4 BD1; note: probe 1.5 nM
T2 construct: for recombinant BRD4 BD1 and BRD4 BD2 proteins
Outline: as §1

Structure (SMILES)	IC50 (MDA-MB-436) [nM]	IC50 (MOLM-13) [nM]	IC50 (recombinant BRD4 BD2) [nM]	IC50 (recombinant BRD4 BD1) [nM]
COc1cc2c(cc1-c1c(C)noc1C)[nH]c1nc(C)nc(Nc3cccc(N(C)C)c3)c12 [Cpd. No. 230, N1-(7-(3,5-dimethylisoxazol-4-yl)-6-methoxy-2-methyl-9H-pyrimido[4,5-b]indol-4-yl)-N3,N3-dimethylbenzene-1,3-diamine]	123	71	8	13
COc1cc2c(cc1-c1c(C)noc1C)[nH]c1nc(C)nc(Nc3ccc4c(c3)N(C)CC4)c12 [Cpd. No. 232, 7-(3,5-dimethylisoxazol-4-yl)-6-methoxy-2-methyl-N-(1-methylindolin-6-yl)-9H-pyrimido[4,5-b]indol-4-amine]	238	62	52	29
COc1cc2c(cc1-c1c(C)noc1C)[nH]c1nc(C)nc(Nc3ccc4cc[nH]c4c3)c12 [Cpd. No. 233, 7-(3,5-dimethylisoxazol-4-yl)-N-(1H-indol-6-yl)-6-methoxy-2-methyl-9H-pyrimido[4,5-b]indol-4-amine]	222	101	38	69
COc1cc2c(cc1-c1c(C)noc1C)[nH]c1nc(C)nc(Nc3cccc4c3CCO4)c12 [Cpd. No. 234, N-(2,3-dihydrobenzofuran-4-yl)-7-(3,5-dimethylisoxazol-4-yl)-6-methoxy-2-methyl-9H-pyrimido[4,5-b]indol-4-amine]	139	34	25	25
COc1cc2c(cc1-c1c(C)noc1C)[nH]c1nc(C)nc(Nc3cc(C)cc(C)c3)c12 [Cpd. No. 237, 7-(3,5-dimethylisoxazol-4-yl)-N-(3,5-dimethylphenyl)-6-methoxy-2-methyl-9H-pyrimido[4,5-b]indol-4-amine]	72	41	5	10
COc1cc2c(cc1-c1c(C)noc1C)[nH]c1nc(C)nc(Nc3c(C4CC4)nn(C)c3C3CC3)c12 [Cpd. No. 239, N-(3,5-dicyclopropyl-1-methyl-1H-pyrazol-4-yl)-7-(3,5-dimethylisoxazol-4-yl)-6-methoxy-2-methyl-9H-pyrimido[4,5-b]indol-4-amine]	43	22	28	19
CCc1nn(C)c(CC)c1Nc1nc(C)nc2[nH]c3cc(-c4c(C)noc4C)c(OC)cc3c12 [Cpd. No. 240, N-(3,5-diethyl-1-methyl-1H-pyrazol-4-yl)-7-(3,5-dimethylisoxazol-4-yl)-6-methoxy-2-methyl-9H-pyrimido[4,5-b]indol-4-amine]	46	20	20	13
CCc1nn(CC)c(CC)c1Nc1nc(C)nc2[nH]c3cc(-c4c(C)noc4C)c(OC)cc3c12 [Cpd. No. 241, 7-(3,5-dimethylisoxazol-4-yl)-6-methoxy-2-methyl-N-(1,3,5-triethyl-1H-pyrazol-4-yl)-9H-pyrimido[4,5-b]indol-4-amine]	76	33	29	16
COc1cc2c(cc1-c1c(C)noc1C)[nH]c1nc(C)nc(Nc3c(C(C)C)nn(C)c3C(C)C)c12 [Cpd. No. 242, N-(3,5-diisopropyl-1-methyl-1H-pyrazol-4-yl)-7-(3,5-dimethylisoxazol-4-yl)-6-methoxy-2-methyl-9H-pyrimido[4,5-b]indol-4-amine]	47	24	12	9
COc1cc2c(cc1-c1c(C)noc1C)[nH]c1nc(C)nc(Nc3c(F)c(C4CC4)nn3C)c12 [Cpd. No. 249, N-(3-cyclopropyl-4-fluoro-1-methyl-1H-pyrazol-5-yl)-7-(3,5-dimethylisoxazol-4-yl)-6-methoxy-2-methyl-9H-pyrimido[4,5-b]indol-4-amine]	302	159	99	29
CCn1nc(C2CC2)c(F)c1Nc1nc(C)nc2[nH]c3cc(-c4c(C)noc4C)c(OC)cc3c12 [Cpd. No. 250, N-(3-cyclopropyl-1-ethyl-4-fluoro-1H-pyrazol-5-yl)-7-(3,5-dimethylisoxazol-4-yl)-6-methoxy-2-methyl-9H-pyrimido[4,5-b]indol-4-amine]	67	21	14	12
COc1cc2c(cc1-c1c(C)noc1C)[nH]c1nc(C)nc(Nc3cc(C4(C)CC4)nn3C)c12 [Cpd. No. 251, 7-(3,5-dimethylisoxazol-4-yl)-6-methoxy-2-methyl-N-(1-methyl-3-(1-methylcyclopropyl)-1H-pyrazol-5-yl)-9H-pyrimido[4,5-b]indol-4-amine]	23	11	5.5	9
COc1cc2c(cc1-c1c(C)noc1C)[nH]c1ccnc(Nc3cc(C4CC4)nn3C)c12 [Cpd. No. 255, N-(3-cyclopropyl-1-methyl-1H-pyrazol-5-yl)-7-(3,5-dimethylisoxazol-4-yl)-8-methoxy-5H-pyrido[4,3-b]indol-1-amine]	26	12	8.5	10.5
COc1cc2c(cc1-c1c(C)noc1C)[nH]c1nc(C)nc(Nc3nn(C)cc3C(C)C)c12 [compound 78, 7-(3,5-dimethylisoxazol-4-yl)-N-(4-isopropyl-1-methyl-1H-pyrazol-3-yl)-6-methoxy-2-methyl-9H-pyrimido[4,5-b] indol-4-amine]	271	97.4	63.5	16
COc1cc2c(cc1-c1c(C)noc1C)[nH]c1nc(C)nc(Nc3nnc4ccccn34)c12 [compound 101, N-([1,2,4]triazolo[4,3-a]pyridin-3-yl)-7-(3,5-dimethylisoxazol-4-yl)-6-methoxy-2-methyl-9H-pyrimido[4,5-b]indol-4-amine]	811	266	786	978
COc1cc2c(cc1-c1c(C)noc1C)[nH]c1nc(C)nc(Nc3cn(C)nc3C(C)(C)O)c12 [compound 269, 2-(4-(7-(3,5-dimethylisoxazol-4-yl)-6-methoxy-2-methyl-9H-pyrimido[4,5-b]indol-4-ylamino)-1-methyl-1H-pyrazol-3-yl)propan-2-ol]	154	97.4	35.1	21.9

More lines, now with the values ahead:

IC50 (MDA-MB-436) [nM]	IC50 (MOLM-13) [nM]	IC50 (recombinant BRD4 BD2) [nM]	IC50 (recombinant BRD4 BD1) [nM]	Structure (SMILES)
129	87	26	25	COc1cc2c(cc1-c1c(C)noc1C)[nH]c1nc(C)nc(Nc3cccc4nc(C)ccc34)c12 [Cpd. No. 228, 7-(3,5-dimethylisoxazol-4-yl)-6-methoxy-2-methyl-N-(2-methylquinolin-5-yl)-9H-pyrimido[4,5-b]indol-4-amine]
88	69	22	24	COc1cc2c(cc1-c1c(C)noc1C)[nH]c1nc(C)nc(Nc3cccc4ncsc34)c12 [Cpd. No. 229, N-(7-(3,5-dimethylisoxazol-4-yl)-6-methoxy-2-methyl-9H-pyrimido[4,5-b]indol-4-yl)benzo[d]thiazol-7-amine]
79	28	44	35	COc1cc2c(cc1-c1c(C)noc1C)[nH]c1nc(C)nc(Nc3cccc4c3CCN4)c12 [Cpd. No. 231, 7-(3,5-dimethylisoxazol-4-yl)-N-(indolin-4-yl)-6-methoxy-2-methyl-9H-pyrimido[4,5-b]indol-4-amine]
146	74	52	41	COc1cc2c(cc1-c1c(C)noc1C)[nH]c1nc(C)nc(Nc3cccc4c3cnn4C)c12 [Cpd. No. 235, 7-(3,5-dimethylisoxazol-4-yl)-6-methoxy-2-methyl-N-(1-methyl-1H-indazol-4-yl)-9H-pyrimido[4,5-b]indol-4-amine]
117	49	59	14	COc1cc2c(cc1-c1c(C)noc1C)[nH]c1nc(C)nc(Nc3cccc4c3ccn4C)c12 [Cpd. No. 236, 7-(3,5-dimethylisoxazol-4-yl)-6-methoxy-2-methyl-N-(1-methyl-1H-indol-4-yl)-9H-pyrimido[4,5-b]indol-4-amine]
61	39	3	5	COc1cc2c(cc1-c1c(C)noc1C)[nH]c1nc(C)nc(Nc3cc(C)ccc3C)c12 [Cpd. No. 238, 7-(3,5-dimethylisoxazol-4-yl)-N-(2,5-dimethylphenyl)-6-methoxy-2-methyl-9H-pyrimido[4,5-b]indol-4-amine]
162	61	14	15	COc1cc2c(cc1-c1c(C)noc1C)[nH]c1nc(C)nc(Nc3ccccc3C(C)C)c12 [Cpd. No. 243, 7-(3,5-dimethylisoxazol-4-yl)-N-(2-isopropylphenyl)-6-methoxy-2-methyl-9H-pyrimido[4,5-b]indol-4-amine]
115	113	121	165	COc1cc2c(cc1-c1c(C)noc1C)[nH]c1nc(C)nc(Nc3ccnc4ccccc34)c12 [Cpd. No. 247, 7-(3,5-dimethylisoxazol-4-yl)-6-methoxy-2-methyl-N-(quinolin-4-yl)-9H-pyrimido[4,5-b]indol-4-amine]
